# Test results as given in ChEMBL document CHEMBL1154104, “S- and C-nucleosidoquinazoline as new nucleoside analogs with potential analgesic and anti-inflammatory activity” (Eur J Med Chem, 2009).
# Tests used:
# Rattus norvegicus [1] = experiment: Antiinflammatory activity against carrageenan-induced paw edema in Sprague-Dawley rat at 70 mg/kg, po pretreated 1 hr before carrageenan challenge measured after 4 hrs by plethysmometer; format: functional
# Mus musculus = experiment: Analgesic activity in Swiss albino mouse assessed as inhibition of acetic acid-induced writhing response at 70 mg/kg, po pretreated 1 hr before acetic acid challenge; format: functional
# Rattus norvegicus [2] = experiment: Gastrointestinal toxicity in Wistar rat assessed as ulcerogenic induces at 200 mg/kg, po after 17 hrs; format: organism-based; parameters: dose 200 mg/kg, route oral; conditions: in vivo
SMILES,inhibition in vivo at 70 mg/kg (Rattus norvegicus [1]) [%],inhibition in vivo at 70 mg/kg (Mus musculus) [%],UI (Rattus norvegicus [2])
CC1(C)CC(=O)C2=C(C1)N=C1NN=C(c3ccc(Cl)cc3)N1C2c1ccc(Cl)cc1 (centres undefined),68,–,–
CC1(C)CC(=O)C2=C(C1)N=C1NN=C([C@@H](O)[C@H](O)[C@H](O)CO)N1C2c1ccc(Cl)cc1 (some centres undefined),84,59.5,0.5
CC1(C)CC(=O)C2=C(C1)N=C(NN)NC2c1ccc(Cl)cc1 (centres undefined),71,–,–
CC1(C)CC(=O)C2=C(C1)N=C1NN=C([C@@H](O)[C@@H](O)[C@H](O)[C@H](O)CO)N1C2c1ccc(Cl)cc1 (some centres undefined),82,57,0.6
CC1(C)CC(=O)C2=C(C1)N=C1NN=C([C@@H](O)[C@@H](O)[C@H](O)CO)N1C2c1ccc(Cl)cc1 (some centres undefined),82,56.6,0.5
CC(=O)OC[C@H]1O[C@@H](SC2=NC3=C(C(=O)CC(C)(C)C3)C(c3ccc(Cl)cc3)N2)[C@H](OC(C)=O)[C@@H](OC(C)=O)[C@H]1OC(C)=O (some centres undefined),76,–,–
CC(=O)OC[C@H]1O[C@@H](SC2=NC3=C(C(=O)CC(C)(C)C3)C(c3ccc(Cl)cc3)N2)[C@H](OC(C)=O)[C@@H](OC(C)=O)[C@@H]1OC(C)=O (some centres undefined),75,–,–
CC1(C)CC(=O)C2=C(C1)N=C1NN=C([C@H](O)[C@@H](O)[C@H](O)[C@H](O)CO)N1C2c1ccc(Cl)cc1 (some centres undefined),86,73,0.5
CC1(C)CC(=O)C2=C(C1)N=C1NN=C([C@H](O)[C@@H](O)[C@@H](O)[C@H](O)CO)N1C2c1ccc(Cl)cc1 (some centres undefined),85,59,0.8
CC1(C)CC(=O)C2=C(C1)NC(=S)NC2c1ccccc1 (centres undefined),50,–,–
CC1(C)CC(=O)C2=C(C1)NC(=S)NC2c1ccc(Cl)cc1 (centres undefined),69,–,–
COc1ccc(C2NC(=S)NC3=C2C(=O)CC(C)(C)C3)cc1 (centres undefined),71,–,–
CC(C)Cc1ccc(C(C)C(=O)O)cc1 (centres undefined) [IBUPROFEN],92,83.5,1.8
CC(=O)OC[C@H]1O[C@@H](SC2=NC3=C(C(=O)CC(C)(C)C3)C(c3ccc(Cl)cc3)N2)[C@H](OC(C)=O)[C@@H]1OC(C)=O (some centres undefined),76,–,–
CC1(C)CC(=O)C2=C(C1)N=C1NN=C([C@H](O)[C@@H](O)[C@H](O)CO)N1C2c1ccc(Cl)cc1 (some centres undefined),82,71,0.6
